Laboratory results: ChEMBL document CHEMBL5465560, “Selectivity Literature for EUbOPEN Chemogenomic Library” (2024)
One block for each molecule: values may come before it.

How the values were obtained:
[1] = biological target: Neuronal acetylcholine receptor subunit beta-2 (Homo sapiens) (UniProt P17787); experiment: Selectivity interaction (Eurofins CEREP Diversity Profile (receptors and ion channels)) EUB0000279b CHRNB2; conditions: at 10 µM
[2] = biological target: Receptor tyrosine-protein kinase erbB-2 (Homo sapiens, UniProt P04626); experiment: Selectivity interaction (KinomeScan (DiscoverX)) EUB0001079a ERBB2; conditions: at 1 µM
Sequence of Receptor tyrosine-protein kinase erbB-2 (P04626 whole entry): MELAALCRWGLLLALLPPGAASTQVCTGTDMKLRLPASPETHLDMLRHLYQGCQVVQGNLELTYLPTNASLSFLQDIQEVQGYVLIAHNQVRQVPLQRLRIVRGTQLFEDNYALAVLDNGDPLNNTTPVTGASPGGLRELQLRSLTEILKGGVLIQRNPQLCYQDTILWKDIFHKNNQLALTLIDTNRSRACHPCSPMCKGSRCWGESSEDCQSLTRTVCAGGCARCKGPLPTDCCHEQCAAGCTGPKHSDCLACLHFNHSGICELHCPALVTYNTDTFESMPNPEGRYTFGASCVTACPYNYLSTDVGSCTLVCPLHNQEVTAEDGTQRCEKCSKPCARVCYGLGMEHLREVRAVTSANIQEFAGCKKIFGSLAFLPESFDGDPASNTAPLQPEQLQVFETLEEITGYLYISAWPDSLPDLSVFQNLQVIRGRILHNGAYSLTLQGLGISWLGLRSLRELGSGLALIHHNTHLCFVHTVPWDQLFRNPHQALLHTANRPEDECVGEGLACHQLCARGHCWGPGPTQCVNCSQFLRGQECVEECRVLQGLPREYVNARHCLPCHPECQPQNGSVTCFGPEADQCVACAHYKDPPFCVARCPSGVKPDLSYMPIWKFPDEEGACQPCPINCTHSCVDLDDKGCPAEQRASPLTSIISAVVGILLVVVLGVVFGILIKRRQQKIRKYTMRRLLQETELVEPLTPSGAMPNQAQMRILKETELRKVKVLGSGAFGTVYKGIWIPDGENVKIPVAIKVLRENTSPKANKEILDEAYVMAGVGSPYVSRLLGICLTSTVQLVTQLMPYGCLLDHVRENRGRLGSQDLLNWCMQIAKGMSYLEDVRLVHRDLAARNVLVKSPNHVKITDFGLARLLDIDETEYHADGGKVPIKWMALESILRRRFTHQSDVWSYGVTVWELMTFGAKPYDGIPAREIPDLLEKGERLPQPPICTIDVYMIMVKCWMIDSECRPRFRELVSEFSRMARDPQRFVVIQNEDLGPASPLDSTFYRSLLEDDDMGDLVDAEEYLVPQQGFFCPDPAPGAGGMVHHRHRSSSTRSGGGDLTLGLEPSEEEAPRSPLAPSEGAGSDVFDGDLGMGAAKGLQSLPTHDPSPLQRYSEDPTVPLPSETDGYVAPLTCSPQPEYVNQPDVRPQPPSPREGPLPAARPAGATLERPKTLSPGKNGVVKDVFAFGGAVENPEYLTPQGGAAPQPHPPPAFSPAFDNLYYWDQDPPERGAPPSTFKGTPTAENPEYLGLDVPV

[3] = biological target: T1, Atypical kinase COQ8B, mitochondrial (Homo sapiens) (UniProt Q96D53); experiment: Selectivity interaction (KinomeScan (DiscoverX)) EUB0000618a ADCK4; conditions: at 10 µM
T1 sequence (whole entry): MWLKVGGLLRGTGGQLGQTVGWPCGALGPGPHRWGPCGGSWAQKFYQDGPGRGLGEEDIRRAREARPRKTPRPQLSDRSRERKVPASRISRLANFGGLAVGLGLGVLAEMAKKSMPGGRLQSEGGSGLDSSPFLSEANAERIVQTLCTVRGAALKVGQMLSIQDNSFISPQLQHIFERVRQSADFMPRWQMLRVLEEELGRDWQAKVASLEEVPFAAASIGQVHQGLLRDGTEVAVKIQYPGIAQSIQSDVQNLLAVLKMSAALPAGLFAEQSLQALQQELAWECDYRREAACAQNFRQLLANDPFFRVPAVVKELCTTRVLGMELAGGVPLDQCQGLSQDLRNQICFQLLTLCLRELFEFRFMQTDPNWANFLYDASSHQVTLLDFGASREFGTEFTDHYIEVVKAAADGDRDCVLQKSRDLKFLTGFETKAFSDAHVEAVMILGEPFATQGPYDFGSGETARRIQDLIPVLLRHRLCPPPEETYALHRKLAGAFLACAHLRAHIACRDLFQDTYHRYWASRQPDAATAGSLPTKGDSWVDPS

[4] = biological target: Mitogen-activated protein kinase 6 (Homo sapiens) (UniProt Q16659); experiment: Selectivity interaction (KinomeScan (DiscoverX)) EUB0000607a MAPK6; conditions: at 10 µM
Sequence of Mitogen-activated protein kinase 6 (Homo sapiens) (Q16659 whole entry): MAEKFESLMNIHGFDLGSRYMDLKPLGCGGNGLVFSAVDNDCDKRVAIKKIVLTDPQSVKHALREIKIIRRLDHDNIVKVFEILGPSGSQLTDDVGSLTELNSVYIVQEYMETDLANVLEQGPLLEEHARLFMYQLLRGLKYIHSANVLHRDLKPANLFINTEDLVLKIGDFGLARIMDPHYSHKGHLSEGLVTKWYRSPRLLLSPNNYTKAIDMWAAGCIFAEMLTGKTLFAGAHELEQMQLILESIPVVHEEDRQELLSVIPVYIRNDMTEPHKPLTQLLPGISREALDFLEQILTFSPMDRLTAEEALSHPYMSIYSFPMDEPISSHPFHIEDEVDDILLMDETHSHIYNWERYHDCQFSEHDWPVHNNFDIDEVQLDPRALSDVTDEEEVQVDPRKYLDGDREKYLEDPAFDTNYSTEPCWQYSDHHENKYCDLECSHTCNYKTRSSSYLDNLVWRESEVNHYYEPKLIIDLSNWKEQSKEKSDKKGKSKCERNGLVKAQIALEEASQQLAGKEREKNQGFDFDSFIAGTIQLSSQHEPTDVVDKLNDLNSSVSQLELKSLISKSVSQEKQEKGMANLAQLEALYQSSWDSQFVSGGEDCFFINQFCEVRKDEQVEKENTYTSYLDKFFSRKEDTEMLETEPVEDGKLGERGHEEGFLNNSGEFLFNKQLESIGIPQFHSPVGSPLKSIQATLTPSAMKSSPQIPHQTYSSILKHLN

[5] = biological target: MAP kinase-interacting serine/threonine-protein kinase 1 (Homo sapiens) (UniProt Q9BUB5); experiment: Selectivity interaction (KinomeScan (DiscoverX)) EUB0000045b MKNK1
Sequence of MAP kinase-interacting serine/threonine-protein kinase 1 (Homo sapiens) (Q9BUB5 whole entry, looked up): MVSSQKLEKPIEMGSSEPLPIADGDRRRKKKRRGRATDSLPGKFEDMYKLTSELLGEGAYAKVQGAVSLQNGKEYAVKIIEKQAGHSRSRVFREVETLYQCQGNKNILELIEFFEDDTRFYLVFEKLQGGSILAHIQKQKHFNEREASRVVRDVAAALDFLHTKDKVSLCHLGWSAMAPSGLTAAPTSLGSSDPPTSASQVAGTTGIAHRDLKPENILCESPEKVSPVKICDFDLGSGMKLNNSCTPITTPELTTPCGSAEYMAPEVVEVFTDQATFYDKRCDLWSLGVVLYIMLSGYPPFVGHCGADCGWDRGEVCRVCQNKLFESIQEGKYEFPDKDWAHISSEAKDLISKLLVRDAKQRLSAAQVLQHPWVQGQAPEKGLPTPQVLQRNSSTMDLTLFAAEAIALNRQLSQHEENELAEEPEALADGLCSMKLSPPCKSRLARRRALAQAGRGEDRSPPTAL

SRSF protein kinase 1 = SRSF protein kinase 1 (Homo sapiens, UniProt Q96SB4); experiment: Selectivity interaction (ActivX KiNativ screen (kinase selectivity in THP-1 cell lysates)) EUB0000639a SRPK1; type: subcellular; conditions: lysate
Sequence of SRSF protein kinase 1 (Q96SB4 whole entry): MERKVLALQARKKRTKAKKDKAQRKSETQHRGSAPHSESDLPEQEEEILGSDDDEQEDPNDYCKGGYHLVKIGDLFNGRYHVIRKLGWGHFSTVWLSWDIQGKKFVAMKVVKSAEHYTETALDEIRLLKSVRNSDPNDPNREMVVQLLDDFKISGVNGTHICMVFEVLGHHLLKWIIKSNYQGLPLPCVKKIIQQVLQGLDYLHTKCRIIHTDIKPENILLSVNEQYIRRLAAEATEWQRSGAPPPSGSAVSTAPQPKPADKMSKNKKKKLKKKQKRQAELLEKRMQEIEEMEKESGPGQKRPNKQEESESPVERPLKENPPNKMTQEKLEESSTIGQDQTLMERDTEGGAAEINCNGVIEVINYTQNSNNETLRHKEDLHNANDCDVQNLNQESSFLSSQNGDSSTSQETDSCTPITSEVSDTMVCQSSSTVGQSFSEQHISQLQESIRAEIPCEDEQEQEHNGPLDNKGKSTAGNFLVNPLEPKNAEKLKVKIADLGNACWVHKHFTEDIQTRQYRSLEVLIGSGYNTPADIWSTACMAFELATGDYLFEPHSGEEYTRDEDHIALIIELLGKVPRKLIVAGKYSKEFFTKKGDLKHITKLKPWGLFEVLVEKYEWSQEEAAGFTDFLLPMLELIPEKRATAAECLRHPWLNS

[6] = biological target: Serine/threonine-protein kinase MRCK alpha (Homo sapiens) (UniProt Q5VT25); experiment: Selectivity interaction (ProQinase) EUB0000171b CDC42BPA
Sequence of Serine/threonine-protein kinase MRCK alpha (Homo sapiens) (Q5VT25 whole entry): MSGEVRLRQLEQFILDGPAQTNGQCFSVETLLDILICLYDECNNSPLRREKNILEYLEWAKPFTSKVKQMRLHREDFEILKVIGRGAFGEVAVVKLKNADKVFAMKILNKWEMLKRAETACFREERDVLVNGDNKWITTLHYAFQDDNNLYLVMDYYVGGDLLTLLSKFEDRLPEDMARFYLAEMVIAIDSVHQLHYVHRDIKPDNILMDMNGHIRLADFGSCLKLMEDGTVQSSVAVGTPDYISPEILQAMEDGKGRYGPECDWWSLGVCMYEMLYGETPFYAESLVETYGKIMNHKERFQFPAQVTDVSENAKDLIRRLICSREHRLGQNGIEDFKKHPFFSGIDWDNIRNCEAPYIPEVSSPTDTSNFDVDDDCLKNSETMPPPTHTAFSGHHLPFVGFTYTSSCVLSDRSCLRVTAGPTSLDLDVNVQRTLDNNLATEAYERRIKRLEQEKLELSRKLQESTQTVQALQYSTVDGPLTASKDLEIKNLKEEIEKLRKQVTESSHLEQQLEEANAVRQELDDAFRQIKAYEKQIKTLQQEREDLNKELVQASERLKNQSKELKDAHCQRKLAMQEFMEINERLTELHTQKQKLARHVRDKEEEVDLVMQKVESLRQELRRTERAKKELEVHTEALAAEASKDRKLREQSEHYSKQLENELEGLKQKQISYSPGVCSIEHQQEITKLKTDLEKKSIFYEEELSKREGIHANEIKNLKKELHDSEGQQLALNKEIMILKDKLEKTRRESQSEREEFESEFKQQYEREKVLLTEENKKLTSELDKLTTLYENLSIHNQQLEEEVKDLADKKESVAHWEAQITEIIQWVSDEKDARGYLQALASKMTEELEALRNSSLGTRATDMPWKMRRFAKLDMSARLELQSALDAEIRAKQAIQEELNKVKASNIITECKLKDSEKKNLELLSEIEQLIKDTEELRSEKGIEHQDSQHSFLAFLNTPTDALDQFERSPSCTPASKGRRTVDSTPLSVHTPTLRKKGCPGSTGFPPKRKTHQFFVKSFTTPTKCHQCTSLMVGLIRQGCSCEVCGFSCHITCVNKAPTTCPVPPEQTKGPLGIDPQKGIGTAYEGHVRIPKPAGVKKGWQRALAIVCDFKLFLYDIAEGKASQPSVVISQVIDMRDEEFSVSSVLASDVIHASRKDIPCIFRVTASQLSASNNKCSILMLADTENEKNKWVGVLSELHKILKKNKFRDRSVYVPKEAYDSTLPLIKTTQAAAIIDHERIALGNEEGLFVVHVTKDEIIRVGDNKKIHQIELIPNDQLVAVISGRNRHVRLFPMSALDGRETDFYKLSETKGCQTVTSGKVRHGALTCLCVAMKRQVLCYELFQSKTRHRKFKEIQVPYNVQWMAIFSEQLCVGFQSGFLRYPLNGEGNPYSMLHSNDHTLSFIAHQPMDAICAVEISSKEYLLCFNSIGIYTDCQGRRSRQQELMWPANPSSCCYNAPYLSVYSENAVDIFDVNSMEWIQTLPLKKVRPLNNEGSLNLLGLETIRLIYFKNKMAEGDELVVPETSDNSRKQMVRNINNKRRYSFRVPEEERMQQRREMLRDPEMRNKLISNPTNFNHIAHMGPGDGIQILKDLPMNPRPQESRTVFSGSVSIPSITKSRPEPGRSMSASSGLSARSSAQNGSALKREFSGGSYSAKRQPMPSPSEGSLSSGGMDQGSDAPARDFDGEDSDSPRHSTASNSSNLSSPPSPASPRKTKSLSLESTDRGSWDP

[7] = biological target: Protein-tyrosine kinase 6 (Homo sapiens, UniProt Q13882); experiment: Selectivity interaction (KinomeScan (DiscoverX)) EUB0001049a PTK6; conditions: at 1 µM
[8] = biological target: G protein-coupled receptor kinase 4 (Homo sapiens) (UniProt P32298); experiment: Selectivity interaction (KinomeScan (DiscoverX)) EUB0000092b GRK4; conditions: at 10 µM
[9] = biological target: T2, Peripheral plasma membrane protein CASK (Homo sapiens) (UniProt O14936); experiment: Selectivity interaction (KinomeScan (DiscoverX)) EUB0000092b CASK; conditions: at 10 µM
T2 sequence (whole entry): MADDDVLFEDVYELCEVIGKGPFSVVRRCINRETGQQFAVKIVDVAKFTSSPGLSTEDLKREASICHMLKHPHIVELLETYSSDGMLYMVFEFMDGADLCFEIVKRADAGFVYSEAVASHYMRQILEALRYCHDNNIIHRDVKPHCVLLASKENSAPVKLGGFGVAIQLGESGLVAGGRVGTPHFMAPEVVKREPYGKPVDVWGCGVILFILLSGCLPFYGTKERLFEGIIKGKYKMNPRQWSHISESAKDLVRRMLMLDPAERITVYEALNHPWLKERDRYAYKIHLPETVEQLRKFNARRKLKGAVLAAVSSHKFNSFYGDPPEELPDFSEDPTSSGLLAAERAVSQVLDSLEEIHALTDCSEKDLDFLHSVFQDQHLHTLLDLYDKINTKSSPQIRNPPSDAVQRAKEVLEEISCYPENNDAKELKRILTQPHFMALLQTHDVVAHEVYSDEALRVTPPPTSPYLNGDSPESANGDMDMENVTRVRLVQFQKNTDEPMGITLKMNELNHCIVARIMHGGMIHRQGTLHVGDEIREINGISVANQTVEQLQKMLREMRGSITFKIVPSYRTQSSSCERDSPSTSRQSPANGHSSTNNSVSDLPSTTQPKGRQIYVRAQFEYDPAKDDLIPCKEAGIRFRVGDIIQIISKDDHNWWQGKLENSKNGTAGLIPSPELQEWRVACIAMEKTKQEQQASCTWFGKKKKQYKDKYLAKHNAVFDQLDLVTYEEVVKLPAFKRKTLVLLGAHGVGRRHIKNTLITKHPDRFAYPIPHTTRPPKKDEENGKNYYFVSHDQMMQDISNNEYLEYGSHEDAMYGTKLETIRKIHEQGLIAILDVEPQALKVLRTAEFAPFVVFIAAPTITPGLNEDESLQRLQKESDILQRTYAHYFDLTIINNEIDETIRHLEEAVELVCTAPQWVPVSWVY

% of control [1]: 105%
Compound: CC(=O)c1cc(-c2ccccc2OCC2CC2)c2ncccn12

Compound: Nc1cnc(N2CCc3cc(S(=O)(=O)Nc4c(F)cc(Cl)cc4F)cc(N4CCCC4=O)c32)nc1 [TP-020n]
% of control [2]: 100%

Compound: O[C@H]1CC[C@H](Nc2ncc3nc(Nc4c(F)cc(F)cc4F)n([C@H]4CCOC4)c3n2)CC1
% of control [3]: 87%

Compound: CNC(=O)Nc1ccc(-c2nc(N3CC4CCC(C3)O4)c3cnn(C4CCC5(CC4)OCCO5)c3n2)cc1
% of control [4]: 85%

Compound: C=CC(=O)Nc1cc(-n2c(=O)ccc3cnc4ccc(-c5ccc(NS(C)(=O)=O)cc5)cc4c32)ccc1C
% of control ([5]; at 1 µM): 100%
% of control ([5]; at 10 µM): 100%

% of inhibition (SRSF protein kinase 1; at 0.01 µM): 6.9%
% of inhibition (SRSF protein kinase 1; at 0.04 µM): -23%
% of inhibition (SRSF protein kinase 1; at 0.2 µM): -5.5%
% of inhibition (SRSF protein kinase 1; at 1 µM): 11.7%
% of inhibition (SRSF protein kinase 1; at 5 µM): 19.9%
Compound: CC[C@@H]1[C@H](F)C(=O)N[C@@H]1COc1nccc2cc(C(N)=O)c(OC)cc12 [ZIMLOVISERTIB]

% of control ([6]; at 1 µM): 102%
% of control ([6]; at 5 µM): 91%
Compound: C=CC(=O)Nc1cccc(C(=O)Nc2ccc(Nc3cc(-c4[nH]c(SC)nc4C)ccn3)cc2)c1

Compound: COc1cc(Nc2nc(C)cc(-c3cnn4nc(OC)ccc34)n2)cc(C(F)(F)F)c1
% of control [7]: 100%

Compound: CCC(=O)N1CCN(c2ccc(-n3c(=O)ccc4cnc5ccc(-c6cnc7ccccc7c6)cc5c43)cc2C(F)(F)F)CC1
% of control [8]: 90%
% of control [9]: 100%
